Data taken from US20260193246A1, “METHOD OF MAKING LANIFIBRANOR” (INVENTIVA, priority 2023, published 2026).

Tests used:
Type in all cases: physicochemical
[1] = Angle of repose (powder flow, Electrolab EFT-01); conditions: 50 g of powder through an orifice of 25 mm; rounded average of three experiments
Experimental: Powder flow and the angle of repose were determined using an Electrolab EFT-01 apparatus. In a first step, powder flow is measured through various orifices (10, 15 and 25 mm). In a second step, the angle of repose is measured by the height of the cone formed by a sample of 50 g of powder passing through an orifice of 25 mm. The result obtained in the rounded average of three experiments.

[2] = Compressibility index and Hausner ratio from bulk and tapped density (Electrolab ETD-1020)
Experimental: The compressibility index and Hausner ratio were determined using an Electrolab ETD-1020 apparatus using measured values of bulk density (ρbulk) and tapped density (ρtapped) as follows: [formula] [formula]

[3] = Dynamic vapor sorption (DVS); conditions: range 0% RH-95% RH
Text: Crystalline form beta of lanifibranor is also characterized by its dynamic vapor sorption (DVS). […] In some embodiments, the DVS isotherm plot of crystalline form beta of lanifibranor is substantially in accordance with FIG. 4.

Thermogravimetry (TGA) = conditions: temperature range 25-200° C.
Experimental: Crystalline form beta of lanifibranor is also characterized by its thermogravimetry (TGA) curve. […] Above 250° C., the weight loss observed likely corresponds to degradation. In some embodiments, said TGA curve is substantially in accordance with FIG. 3.

Structure (SMILES): O=C(O)CCCc1cc2cc(Cl)ccc2n1S(=O)(=O)c1ccc2ncsc2c1 [crystalline form beta of lanifibranor, 1-(6-benzothiazolylsulfonyl)-5-chloro-1H-indole-2-butanoic acid]
- angle of repose [1]: 35 °
- Hausner ratio [2]: 1.26
- compressibility index [2]: 20.64
- maximum uptake (weight variation, DVS) [3]: +0.1%
- weight loss (TGA) (Thermogravimetry (TGA)): does not highlight any significant weight loss
